# Data published in the supplement of paper PMC5579334.
# ± gives the standard deviation of the averaged measurements.
# Key:
# YST-1 [1] = test: drug sensitivity score (DSS, CellTiter-Glo viability, 72 h) (DSS (dimensionless)); higher = more sensitive; extreme values may be limits of the assay
# How it was run: (§1)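 For this screen, 384-well plates were preprinted with each compound at five concentrations in 10-fold steps and seeded with MPNST cell lines or primary human Schwann cells at 750–1000 cells per well. Incubation lasted 72 h at 37 °C, 5% CO2, and CellTiter-Glo ATP luminescence, scaled between vehicle and positive-control wells and averaged over duplicates where available, served as viability. Logistic fits with four parameters were applied. Relative IC50 (censored at the top concentration) and drug sensitivity score derive from these fits, and percent inhibition is at the top concentration.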
# [2] = test system: HSC2 (primary human Schwann cells); test: as above
# How it was run: as §1
# HS-Sch-2 [3] = test: as above
# How it was run: as §1
# [4] = test system: HSC1 (primary human Schwann cells); test: as above
# How it was run: as §1
# S462 [5] = test: as above
# How it was run: as §1
# STS26T [6] = test: as above
# How it was run: as §1
# S1507-2 [7] = test: as above
# How it was run: as §1
# HS-PSS [8] = test: as above
# How it was run: as §1
# ST8814 [9] = test: as above
# How it was run: as §1
# YST-1 [10] = test: % inhibition of CellTiter-Glo viability at highest tested concentration (72 h), relative to DMSO and benzethonium chloride controls; higher = more inhibition
# How it was run: as §1
# [11] = test system: HSC2 (primary human Schwann cells); test: as above
# How it was run: as §1
# HS-Sch-2 [12] = test: as above
# How it was run: as §1
# [13] = test system: HSC1 (primary human Schwann cells); test: as above
# How it was run: as §1
# S462 [14] = test: as above
# How it was run: as §1
# STS26T [15] = test: as above
# How it was run: as §1
# S1507-2 [16] = test: as above
# How it was run: as §1
# HS-PSS [17] = test: as above
# How it was run: as §1
# ST8814 [18] = test: as above
# How it was run: as §1
# [19] = test system: HSC2 (primary human Schwann cells); test: drug sensitivity score (DSS, CellTox-Green cytotoxicity, 72 h) (DSS (dimensionless)); higher = more cytotoxic; extreme values may be limits of the assay
# How it was run: (§2)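 MPNST cell lines and primary human Schwann cells were grown for 72 h at 37 °C in 384-well plates containing five 10-fold compound dilutions. CellTox-Green, added before seeding at a final 1:1000 dilution, gave fluorescence from DNA released by disrupted cells, and signals were scaled to vehicle and positive-control wells. Curves were fitted with a four-parameter logistic model. Drug sensitivity score and relative IC50 come from these fits, with IC50 censored at the top concentration.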
# [20] = test system: HSC1 (primary human Schwann cells); test: as above
# How it was run: as §2
# STS26T [21] = test: as above
# How it was run: as §2
# S1507-2 [22] = test: as above
# How it was run: as §2
# HS-PSS [23] = test: as above
# How it was run: as §2
# ST8814 [24] = test: as above
# How it was run: as §2
Structure (SMILES),drug sensitivity score (YST-1 [1]),drug sensitivity score [2],drug sensitivity score (HS-Sch-2 [3]),drug sensitivity score [4],drug sensitivity score (S462 [5]),drug sensitivity score (STS26T [6]),drug sensitivity score (S1507-2 [7]),drug sensitivity score (HS-PSS [8]),drug sensitivity score (ST8814 [9]),% inhibition (YST-1 [10]) [%],% inhibition [11] [%],% inhibition (HS-Sch-2 [12]) [%],% inhibition [13] [%],% inhibition (S462 [14]) [%],% inhibition (STS26T [15]) [%],% inhibition (S1507-2 [16]) [%],% inhibition (HS-PSS [17]) [%],% inhibition (ST8814 [18]) [%],drug sensitivity score [19],drug sensitivity score [20],drug sensitivity score (STS26T [21]),drug sensitivity score (S1507-2 [22]),drug sensitivity score (HS-PSS [23]),drug sensitivity score (ST8814 [24])
COc1c(C)cnc(Cn2cnc3c(Cl)nc(N)nc32)c1C [BIIB021] (max concentration tested 10000 nM),15,17.6,24.5,16.2,20.083 ± 0.0076,16.9,18.1 ± 1.3,14.4,17.8,84.3,96.9,99.9,96.4,97 ± 1.1,90.3,98.34 ± 0.36,88,96.1,19.7,20,11.8,15.8 ± 2.9,5.44,9.2
CCCCCOC(=O)Nc1nc(=O)n([C@@H]2O[C@H](C)[C@@H](O)[C@H]2O)cc1F [Capecitabine] (max concentration tested 10000 nM),0,0,0,0,0,0.0023,0,0,0,-6.84,-3.4,-4.92,1.09,-4.78 ± 2.1,12,5.66 ± 1.9,-4.86,-8.14,0,0,0,0,0,0
CCN1CCN(c2ccc(Nc3cc(N(C)C(=O)Nc4c(Cl)c(OC)cc(OC)c4Cl)ncn3)cc2)CC1 [NVP-BGJ398] (max concentration tested 1000 nM),0,0,0,0,0,0,0.00445 ± 0.0063,0,0.135,2.47,5.81,0.34,4.11,0.872 ± 0.61,-2.71,6.59 ± 6.9,9.97,14.3,0,0,0,0.143 ± 0.2,0,0
Nc1nc(Cl)nc2c1ncn2[C@H]1C[C@H](O)[C@@H](CO)O1 [Cladribine] (max concentration tested 1000 nM),2.87,6.3,3.37,5.81,0.676 ± 0.56,3.75,0.0035 ± 0.005,1.59,0.423,54.4,71.9,67.9,61.2,24.7 ± 8.6,52.5,9.03 ± 3,38.4,21.3,5.38,4.05,0.902,4.43 ± 6.3,0.65,0.837
C[C@@]1(C(=O)Nc2ccc(F)nc2)CCCN1c1nc(Nc2cc(C3CC3)n[nH]2)c2cccn2n1 (max concentration tested 10000 nM),25.8,16.2,9.41,14.5,15.5 ± 0.72,8.67,14.5 ± 2.5,7.91,13.1,74.3,96.7,89.1,94.8,92.1 ± 1.2,64,99.4 ± 1.5,87.3,93.2,9.9,7.13,11.7,9.5 ± 0.59,3.23,13
Cc1cc(Nc2cc(CN3CCOCC3)c3nc(C)c(Cc4ccc(Cl)cc4F)n3n2)n[nH]1 [Gandotinib] (max concentration tested 10000 nM),7.71,10.9,9.06,10.2,11.7 ± 2.7,8.72,10.4 ± 1.9,7.29,8.52,70.5,103,96.6,103,96.5 ± 2.7,68.9,101.6 ± 0.37,68,97.2,7.38,8.02,3.96,7.03 ± 1.3,0.55,5.3
CC1=C(/C=C/C(C)=C/C=C/C(C)=C/C(=O)O)C(C)(C)CCC1 [Tretinoin] (max concentration tested 10000 nM),0,1.99,0,3.65,0,0.0098,2.06 ± 2.6,0,1.48,-8.64,20.1,-3.32,32.9,4.5 ± 5.9,12.3,22.8 ± 16,-12.1,19.1,0,0,0,0.483 ± 0.68,0,0
Cc1ccc(-n2nc(C(C)(C)C)cc2NC(=O)Nc2ccc(OCCN3CCOCC3)c3ccccc23)cc1 [Doramapimod] (max concentration tested 10000 nM),10.5,2.53,3.93,1.15,0.326 ± 0.46,0,0,6.23,0,80.8,32.9,55.8,26.7,12.1 ± 6.3,1.72,0.115 ± 1.9,68.6,-7.45,0,0,0,1.81 ± 0.51,1.28,0
